Measurements taken from US7781591B2, “Substituted 3-cyanopyridines as protein kinase inhibitors” (Wyeth LLC, priority 2006, dated 2010).

Target: T1, human PKCθ full length enzyme (Homo sapiens, UniProt Q04759)
T1 construct: human PKCθ full length enzyme (Panvera Cat# P2996); purchased Panvera P2996
Experiment: PKCθ IMAP assay (fluorescence polarization)
Assay type: biochemical
Conditions: human PKCθ full length enzyme, IMAP; average value; read-out: IC50 PKCθ IMAP

T1 sequence (Q04759 whole entry): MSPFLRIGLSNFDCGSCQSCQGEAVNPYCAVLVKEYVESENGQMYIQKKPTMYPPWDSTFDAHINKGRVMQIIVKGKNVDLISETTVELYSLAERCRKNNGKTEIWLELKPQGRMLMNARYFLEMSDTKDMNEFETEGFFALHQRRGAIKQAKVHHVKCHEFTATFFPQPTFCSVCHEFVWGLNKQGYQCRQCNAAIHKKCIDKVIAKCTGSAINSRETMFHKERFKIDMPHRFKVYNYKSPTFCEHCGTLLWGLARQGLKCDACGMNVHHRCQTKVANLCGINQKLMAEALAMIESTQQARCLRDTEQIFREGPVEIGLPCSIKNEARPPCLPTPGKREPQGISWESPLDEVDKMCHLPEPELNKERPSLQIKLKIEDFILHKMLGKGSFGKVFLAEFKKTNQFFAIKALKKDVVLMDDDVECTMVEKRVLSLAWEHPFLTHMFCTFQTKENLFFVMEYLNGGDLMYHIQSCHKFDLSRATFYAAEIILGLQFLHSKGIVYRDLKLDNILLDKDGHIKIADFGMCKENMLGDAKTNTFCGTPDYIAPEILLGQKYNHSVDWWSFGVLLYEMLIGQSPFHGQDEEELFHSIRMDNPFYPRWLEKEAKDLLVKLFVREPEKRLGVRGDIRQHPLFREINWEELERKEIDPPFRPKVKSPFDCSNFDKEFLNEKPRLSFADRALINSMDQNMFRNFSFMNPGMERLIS

SMILES | IC50
N#Cc1cncc(-c2ccc(OCCCl)cc2)c1Nc1cccc2[nH]ccc12 [Compound 332, 5-[4-(2-chloroethoxy)phenyl]-4-(1H-indol-4-ylamino)nicotinonitrile] | 8 nM
N#Cc1cncc(-c2ccc(OCCN3CCOCC3)cc2)c1Nc1cccc2[nH]ccc12 [Compound 334, 4-(1H-indol-4-ylamino)-5-[4-(2-morpholin-4-ylethoxy)phenyl]nicotinonitrile] | 30 nM
CN1CCN(CCOc2ccc(-c3cncc(C#N)c3Nc3cccc4[nH]ccc34)cc2)CC1 [Compound 335, 4-(1H-indol-4-ylamino)-5-{4-[2-(4-methylpiperazin-1-yl)ethoxy]phenyl}nicotinonitrile] | 10 nM
COc1ccc(-c2cncc(C#N)c2Nc2c(C)ccc3[nH]ccc23)cc1OC [Compound 336, 5-(3,4-dimethoxyphenyl)-4-[(5-methyl-1H-indol-4-yl)amino]nicotinonitrile] | 200 nM
COc1ccc(-c2cncc(C#N)c2Nc2cccc3[nH]ccc23)cc1OCCNCCCN1CCCC1=O [Compound 338, 4-(1H-indol-4-ylamino)-5-[4-methoxy-3-(2-{[3-(2-oxopyrrolidin-1-yl)propyl]amino}ethoxy)phenyl]nicotinonitrile] | 8 nM
COc1ccc(-c2cncc(C#N)c2Nc2cccc3[nH]ccc23)cc1OCCNCCc1c[nH]cn1 [Compound 339, 5-[3-(2-{[2-(1H-imidazol-4-yl)ethyl]amino}ethoxy)-4-methoxyphenyl]-4-(1H-indol-4-ylamino)nicotinonitrile] | 10 nM
COc1ccc(-c2cncc(C#N)c2Nc2ccc3[nH]ccc3c2C)cc1OCCNCCCc1ccccc1 [Compound 342, 5-(4-methoxy-3-{2-[(3-phenylpropyl)amino]ethoxy}phenyl)-4-[(4-methyl-1H-indol-5-yl)amino]nicotinonitrile] | 1 nM
COc1ccc(-c2cncc(C#N)c2Nc2ccc3[nH]ccc3c2C)cc1OCCN1CCN(C)CC1 [Compound 343, 5-{4-methoxy-3-[2-(4-methylpiperazin-1-yl)ethoxy]phenyl}-4-[(4-methyl-1H-indol-5-yl)amino]nicotinonitrile] | 10 nM
COc1cc(-c2cncc(C#N)c2Nc2ccc3[nH]ccc3c2C)ccc1OCCNCCCc1ccccc1 [Compound 344, 5-(3-methoxy-4-{2-[(3-phenylpropyl)amino]ethoxy}phenyl)-4-[(4-methyl-1H-indol-5-yl)amino]nicotinonitrile] | 8 nM
COc1cc(-c2cncc(C#N)c2Nc2ccc3[nH]ccc3c2C)ccc1OCCN(C)C [Compound 345, 5-{4-[2-(dimethylamino)ethoxy]-3-methoxyphenyl}-4-[(4-methyl-1H-indol-5-yl)amino]nicotinonitrile] | 7 nM
N#Cc1cncc(-c2cccc(Br)c2)c1Nc1cccc2c1CC(=O)N2 [Compound 346, 5-(3-bromophenyl)-4-[(2-oxo-2,3-dihydro-1H-indol-4-yl)amino]nicotinonitrile] | 540 nM
Cc1c(Nc2c(C#N)cncc2-c2ccc(OCCCl)cc2)ccc2[nH]ccc12 [Compound 348, 5-[4-(2-chloroethoxy)phenyl]-4-[(4-methyl-1H-indol-5-yl)amino]nicotinonitrile] | 4 nM
COc1ccc(-c2cncc(C#N)c2Nc2cccc3[nH]c(C)cc23)cc1OC [Compound 349, 5-(3,4-dimethoxyphenyl)-4-[(2-methyl-1H-indol-4-yl)amino]nicotinonitrile] | 130 nM
Cc1c(Nc2c(C#N)cncc2-c2ccc(OCCN3CCN(C)CC3)cc2)ccc2[nH]ccc12 [Compound 350, 4-[(4-methyl-1H-indol-5-yl)amino]-5-{4-[2-(4-methylpiperazin-1-yl)ethoxy]phenyl}nicotinonitrile] | 8 nM
Cc1c(Nc2c(C#N)cncc2-c2ccc(OCCN3CCOCC3)cc2)ccc2[nH]ccc12 [Compound 351, 4-[(4-methyl-1H-indol-5-yl)amino]-5-[4-(2-morpholin-4-ylethoxy)phenyl]nicotinonitrile] | 20 nM
COc1ccc(-c2cncc(C#N)c2Nc2cccc3[nH]ccc23)cc1OCCNCCc1ccccc1 [Compound 353, 4-(1H-indol-4-ylamino)-5-(4-methoxy-3-{2-[(2-phenylethyl)amino]ethoxy}phenyl)nicotinonitrile] | 1 nM

Other lines, results leading:

IC50 | SMILES
4 nM | COc1ccc(-c2cncc(C#N)c2Nc2cccc3[nH]ccc23)cc1OCCNCCc1cccnc1 [Compound 354, 4-(1H-indol-4-ylamino)-5-(4-methoxy-3-{2-[(2-pyridin-3-ylethyl)amino]ethoxy}phenyl)nicotinonitrile]
3 nM | Cc1c(Nc2c(C#N)cncc2-c2ccc(OCCNCCCc3ccccc3)cc2)ccc2[nH]ccc12 [Compound 355, 4-[(4-methyl-1H-indol-5-yl)amino]-5-(4-{2-[(3-phenylpropyl)amino]ethoxy}phenyl)nicotinonitrile]
40 nM | CN(C)CCCOc1ccc(-c2cncc(C#N)c2Nc2cccc3[nH]ccc23)cn1 [Compound 356, 6′-[3-(dimethylamino)propoxy]-4-(1H-indol-4-ylamino)-3,3′-bipyridine-5-carbonitrile]
30 nM | Cc1c(Nc2c(C#N)cncc2-c2ccc(OCCCN(C)C)nc2)ccc2[nH]ccc12 [Compound 357, 6′-[3-(dimethylamino)propoxy]-4-[(4-methyl-1H-indol-5-yl)amino]-3,3′-bipyridine-5-carbonitrile]
10 nM | N#Cc1cncc(-c2cccc(O)c2)c1Nc1cccc2[nH]ccc12 [Compound 358, 5-(3-hydroxyphenyl)-4-(1H-indol-4-ylamino)nicotinonitrile]
20 nM | N#Cc1cncc(-c2cc3cc(CN4CCNCC4)ccc3s2)c1Nc1cccc2[nH]ccc12 [Compound 359, 4-(1H-indol-4-ylamino)-5-[5-(piperazin-1-ylmethyl)-1-benzothien-2-yl]nicotinonitrile]
2 nM | N#Cc1cncc(-c2cc3cc(CNC(=O)CCN)ccc3s2)c1Nc1cccc2[nH]ccc12 [Compound 360, N-({2-[5-cyano-4-(1H-indol-4-ylamino)pyridin-3-yl]-1-benzothien-5-yl}methyl)-b-alaninamide]
40 nM | N#Cc1cncc(-c2ccc(NCCN3CCOCC3)nc2)c1Nc1cccc2[nH]ccc12 [Compound 361, 4-(1H-indol-4-ylamino)-6′-[(2-morpholin-4-ylethyl)amino]-3,3′-bipyridine-5-carbonitrile]
50 nM | Cc1c(Nc2c(C#N)cncc2-c2ccc(NCCN3CCOCC3)nc2)ccc2[nH]ccc12 [Compound 362, 4-[(4-methyl-1H-indol-5-yl)amino]-6′-[(2-morpholin-4-ylethyl)amino]-3,3′bipyridine-5-carbonitrile]
20 nM | Cc1c(Nc2c(C#N)cncc2-c2ccc(OCCN(C)C)cc2Cl)ccc2[nH]ccc12 [Compound 363, 5-{2-chloro-4-[2-(dimethylamino)ethoxy]phenyl}-4-[(4-methyl-1H-indol-5-yl)amino]nicotinonitrile]
10 nM | COc1ccc(-c2cncc(C#N)c2Nc2cccc3[nH]ccc23)cc1OCCNCCCN1CCOCC1 [Compound 364, 4-(1H-indol-4-ylamino)-5-(4-methoxy-3-{2-[(3-morpholin-4-ylpropyl)amino]ethoxy}phenyl)nicotinonitrile]
4 nM | COc1ccc(-c2cncc(C#N)c2Nc2cccc3[nH]ccc23)cc1OCCNCCCn1ccnc1 [Compound 365, 5-[3-(2-{[3-(1H-imidazol-1-yl)propyl]amino}ethoxy)-4-methoxyphenyl]-4-(1H-indol-4-ylamino)nicotinonitrile]
20 nM | N#Cc1cncc(-c2cccc(OC[C@@H](N)Cc3ccccc3)c2)c1Nc1cccc2[nH]ccc12 [Compound 366, 5-(3-{[(2S)-2-amino-3-phenylpropyl]oxy}phenyl)-4-(1H-indol-4-ylamino)nicotinonitrile]
3 nM | Cc1c(Nc2c(C#N)cncc2-c2cc3cc(CNCc4ccccc4)ccc3s2)ccc2[nH]ccc12 [Compound 367, 5-{5-[(benzylamino)methyl]-1-benzothien-2-yl}-4-[(4-methyl-1H-indol-5-yl)amino]nicotinonitrile]
10 nM | CCCCN1CCN(CCOc2ccc(-c3cncc(C#N)c3Nc3ccc4[nH]ccc4c3C)cc2)CC1 [Compound 368, 5-{4-[2-(4-butylpiperazin-1-yl)ethoxy]phenyl}-4-[(4-methyl-1H-indol-5-yl)amino]nicotinonitrile]
40 nM | N#Cc1cncc(-c2cc3cc(C4OCCCO4)ccc3o2)c1Nc1cccc2[nH]ccc12 [Compound 369, 5-[5-(1,3-dioxan-2-yl)-1-benzofuran-2-yl]-4-(1H-indol-4-ylamino)nicotinonitrile]
4 nM | Cc1c(Nc2c(C#N)cncc2-c2cc3cc(C4OCCCO4)ccc3o2)ccc2[nH]ccc12 [Compound 370, 5-[5-(1,3-dioxan-2-yl)-1-benzofuran-2-yl]-4-[(4-methyl-1H-indol-5-yl)amino]nicotinonitrile]
30 nM | COc1ccc(-c2cncc(C#N)c2Nc2ccc3[nH]ccc3c2C)c(Cl)c1 [Compound 371, 5-(2-chloro-4-methoxyphenyl)-4-[(4-methyl-1H-indol-5-yl)amino]nicotinonitrile]
7 nM | COc1cc(-c2cncc(C#N)c2Nc2ccc3[nH]ccc3c2C)ccc1OCCCl [Compound 372, 5-[4-(2-chloroethoxy)-3-methoxyphenyl]-4-[(4-methyl-1H-indol-5-yl)amino]nicotinonitrile]
1000 nM | N#Cc1cncc(-c2cc3ccccc3o2)c1Nc1ccc2[nH]ncc2c1 [Compound 373, 5-(1-benzofuran-2-yl)-4-(1H-indazol-5-ylamino)nicotinonitrile]
20 nM | Cc1c(Nc2c(C#N)cncc2-c2ccc(O)cc2)ccc2[nH]ccc12 [Compound 374, 5-(4-hydroxyphenyl)-4-[(4-methyl-1H-indol-5-yl)amino]nicotinonitrile]
150 nM | COc1cccc(Cl)c1-c1cncc(C#N)c1Nc1ccc2[nH]ccc2c1C [Compound 375, 5-(2-chloro-6-methoxyphenyl)-4-[(4-methyl-1H-indol-5-yl)amino]nicotinonitrile]
